In one series the target is T1, SspH1 (aa 161–700) (Salmonella typhimurium, UniProt D0ZVG2).
T1 construct: Recombinant IpaH9.8 (21–545) and SspH1 (161–700) were incubated at 0.5 μM; His-tag (N, cleaved yes); made in house; host or cells: E. coli BL21
Nature of the series: Full kinetics characterisation of covalent labelling by intact LC-MS. The series is classed as binding. To be noted: for ligand efficiencies reflecting the reversible binding interactions: SspH1 and 2, from lower bounds on KI. How it is done:
(§1) Fig. 3 Validation of HTC hit compounds by intact MS. Labelling heatmaps of dilution series (100–6.25 μM) of compounds 4–10 with (A) WT SspH1 and (B) C492K SspH1. Labelling heatmaps of dilution series of (C) compound 6 and (D) compound 7 with bacterial and human ubiquitin binding proteins. Recombinant proteins were incubated at either 1.0 or 0.5 μM with 50 μM fragments for 24 hours at 4 °C, before fragment labelling was analysed by intact LC-MS. Bacterial proteins are shown in bold and human proteins in italic fonts. (E)–(H) Kinetics analyses: time courses (0–12 hours) of compound labelling (100–1.56 μM) of SspH1 and SspH2 (0.5 μM) for (E) SspH1 and compound 7, and (F) SspH2 and compound 6. Measurements were performed in technical triplicates. Labelling percentages were plotted against time in GraphPad Prism v.10, and curves fitted separately for each replicate using one-phase association, with constraints Y0 = 0 and plateau = highest labelling percentage. Graphs for SspH1 and compound 6, and SspH2 and compound 7 are shown in Fig. S4A and B. Rate constants (kobs, as given by Graphpad Prism calculated K values) were plotted against fragment concentration in triplicate for (G) SspH1 and (H) SspH2. Straight lines were fitted with constraint Yintercept = 0. For SspH2 kinetics, 100 μM kobs was outside the linear range.
(§2) To further understand and compare the labelling of SspH1 and SspH2, we performed a full kinetic analysis of compounds 6 and 7 with both proteins (Fig. 3E–H and Fig. S4A, B). […] Up to a maximum test concentration of 100 μM, the kobsvs. concentration plot was linear for SspH1 so it was not possible to derive individual values of kinact and KI. For SspH2, the relationship was also linear up to 50 μM so it was still only possible to reliably calculate kinact/KI. Nonetheless, we can infer from these plots KI values (SspH1) >100 μM and KI values […] for compounds 6 and 7. From these lower bounds on KI it is clear that the range of ligand efficiencies reflecting the reversible binding interactions with SspH1 and 2 are low (0.19–0.21) and may hint at a challenging binding site for optimising a small molecule inhibitor. Identification of alternative hit series and/or X-ray crystallography would be expected to yield further insight into this putative small molecule binding site. […] At present we don’t understand the molecular basis for the increased reactivity of SspH2 over SspH1, and can only speculate that subtle differences in the active site environment render the catalytic cysteine more reactive.
(§3) Recombinant SspH1 (aa 161–700) and SspH2 (aa 166–783) were both characterised against compounds 6 and 7. A dilution series in DMSO was prepared for the compound, and 1 μL added to three separate wells in a 384 well plate, representing technical triplicates of each condition. 99 μL of 0.5 μM SspH1 or SspH2 in 25 mM HEPES pH 7.5, 50 mM NaCl buffer was added to the wells and mixed thoroughly (final compound concentrations 100, 50, 25, 12.5, 6.25, 3.125, 1.56 μM). This mixture was then dispensed into 8 wells of 10 μL each in a new 384 well plate, one for each time point. The plate was incubated at 4 °C during intact MS. Intact protein LC-MS was performed as previously described,[40] at approximate time points 0, 1, 2, 4, 6, 8 and 12 hours, and deconvoluted as above. The exact times of each measurement were saved with each reading and used for kinetics calculations. Labelling percentages were plotted against time in GraphPad Prism v.10, and curves fitted separately for each replicate using one-phase association, with constraints Y0 = 0 and plateau = highest labelling percentage. Rate constants (kobs, as given by Graphpad Prism calculated K values) were then plotted against concentration in triplicate, and straight lines fitted with constraint Yintercept = 0. Data are presented as mean ± SD, n = 3. Slope values were converted from μM^−1 hour^−1 to M^−1 s^−1 to give kinact/KI values. […]

In another series the target is T2, SspH2 (aa 166–783) (Salmonella typhimurium, UniProt D0ZPH9).
T2 construct: Recombinant SspH1 (aa 161–700) and SspH2 (aa 166–783) were both characterised; His-tag (N, cleaved yes); made in house; host or cells: E. coli BL21
T2 sequence (D0ZPH9 166-783): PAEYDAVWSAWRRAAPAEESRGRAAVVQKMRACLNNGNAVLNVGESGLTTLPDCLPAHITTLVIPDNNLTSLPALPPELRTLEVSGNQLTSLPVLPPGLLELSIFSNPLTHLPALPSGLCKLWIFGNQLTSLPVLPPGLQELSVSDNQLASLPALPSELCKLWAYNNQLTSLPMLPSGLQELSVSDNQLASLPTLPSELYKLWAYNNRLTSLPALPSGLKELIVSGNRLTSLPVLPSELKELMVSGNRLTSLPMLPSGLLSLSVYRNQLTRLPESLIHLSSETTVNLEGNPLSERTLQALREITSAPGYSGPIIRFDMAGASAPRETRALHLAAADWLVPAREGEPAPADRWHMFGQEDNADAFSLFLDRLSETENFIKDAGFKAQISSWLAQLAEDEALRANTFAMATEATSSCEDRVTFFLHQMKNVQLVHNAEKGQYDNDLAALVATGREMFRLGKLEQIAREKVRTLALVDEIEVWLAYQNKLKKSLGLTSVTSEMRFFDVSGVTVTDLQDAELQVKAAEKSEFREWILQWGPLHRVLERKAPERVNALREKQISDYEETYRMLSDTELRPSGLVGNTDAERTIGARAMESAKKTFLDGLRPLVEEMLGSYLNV
Described as above. The format is binding. Particulars: for fold higher kinact/KI with SspH2 than SspH1: SspH2 versus SspH1. How it is done: as §1, §2, §3

Another series relates to glutathione. Nature of the series: Glutathione reactivity assay. The format is physicochemical. To be noted: 6 mM glutathione in PBS, 40 °C; read-out: GSH t1/2 (converted). How it is done:
10 mM DMSO stocks of compounds 6 and 7 were diluted 20-fold with acetonitrile, and then further 5-fold diluted with 6 mM glutathione in PBS. The reaction was shaken before incubation at 40 °C. The reaction mixture was analysed via UPLC-UV-MS up to eight times across 24 hours, compared to known reference compounds and samples of each compound in distilled water. UPLC conditions: flow rate: 800 μL min^−1; column: acquity UPLC BEH C18 1.7 μm 2.1 × 50 mm; column temperature: 37 °C; mobile phase A: 0.1% formic acid in H2O; mobile phase B: 0.1% formic acid in 100% ACN; run time: 2 minutes; gradient elution: 97% A to 0% A; UV conditions: 210 to 350 nm range; MS conditions: single quad, ESI+, scan range: 50–1000 Da. For each time point, the UV peak area of the parent peak was extracted at a single wavelength (e.g., 254 nm). A pseudo-first-order rate constant (k) for each compound was determined from the slope of a linear regression fit for a plot of the […] peak area of the parent compound versus the time differential for the eight time points; the t1/2 is calculated as follows: t1/2 = 0.693/k.

From publication PMC12584752, “Covalent fragment screening to inhibit the E3 ligase activity of bacterial NEL enzymes SspH1 and SspH2” (RSC Chemical Biology, 2025) come the findings set out here.

As usually defined, the kinact/KI is the maximal inactivation rate divided by the concentration that gives half of it.

T1 sequence (D0ZVG2 161-700): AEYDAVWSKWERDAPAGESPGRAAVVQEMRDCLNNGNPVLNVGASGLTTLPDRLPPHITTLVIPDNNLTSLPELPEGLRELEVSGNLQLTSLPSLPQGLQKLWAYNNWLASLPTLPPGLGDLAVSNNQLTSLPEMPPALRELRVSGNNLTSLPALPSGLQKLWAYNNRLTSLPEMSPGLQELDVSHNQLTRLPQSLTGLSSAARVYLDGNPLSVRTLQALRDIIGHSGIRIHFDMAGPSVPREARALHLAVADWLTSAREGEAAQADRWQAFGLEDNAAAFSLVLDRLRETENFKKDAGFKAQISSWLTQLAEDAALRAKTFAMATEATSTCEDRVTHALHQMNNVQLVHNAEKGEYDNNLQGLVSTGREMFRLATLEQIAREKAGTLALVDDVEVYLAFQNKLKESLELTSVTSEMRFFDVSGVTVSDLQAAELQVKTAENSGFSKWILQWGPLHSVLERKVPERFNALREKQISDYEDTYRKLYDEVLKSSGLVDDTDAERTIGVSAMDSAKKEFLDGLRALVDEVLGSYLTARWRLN

Regarding `Cc1cc(-c2nc3ccccc3n2C2CCN(C(=O)CCl)CC2)cc(C)c1O.Cl` [compound 6], on SspH1 (aa 161–700), the Ki was greater than 100 µM, the kinact/KI was found to be 1.2 M⁻¹ s⁻¹ and the “ligand efficiencies reflecting the reversible binding interactions” value is 0.19–0.21. At SspH2 (aa 166–783), the Ki is greater than 50 µM, the kinact/KI came to 6.9 M⁻¹ s⁻¹ and the “fold higher kinact/KI with SspH2 than SspH1” value is reported as 4–5 fold. In the series on glutathione, the half-life at 100 µM was 4.9 h.
Take `Cl.O=C(CCl)N1CCC(n2c(-c3ccc(C(F)(F)F)cc3)nc3ccccc32)CC1` [compound 7]: at SspH1 (aa 161–700), the Ki is greater than 100 µM, the kinact/KI came to 1.4 M⁻¹ s⁻¹ and the “ligand efficiencies reflecting the reversible binding interactions” value is listed as 0.19–0.21. Besides, on SspH2 (aa 166–783), the Ki is greater than 50 µM, the kinact/KI was determined as 6.2 M⁻¹ s⁻¹ and the “fold higher kinact/KI with SspH2 than SspH1” value is 4–5 fold. Also, the half-life at 100 µM in the series on glutathione was 4 h.
